Data: US20200339544A1 (JOINT STOCK COMPANY "BIOCAD", priority 2017, published 2020)
Read-outs that look alike come from different tables or passages of the source.

Columns and labels:
[1] = General cytotoxicity on HepG2 cells; type: cell-based; details: human; general cytotoxicity, HepG2 cells, 72 hours, average of several tests
Protocol: (§1) The CC50 values were determined in the test for General cytotoxicity on HepG2 cells (rhepatocellular carcinoma, ATCC® HB-8065™) (Table 16). The cells were subcultured in DMEM medium (PanEco, S420p) supplemented with 10% FBS (Gibco, #16140071) for at least 1 passage after thawing, washed with PBS and passaged in 96-well culture plates (3599, Corning) at a concentration of 2*10^4 cells/100 μL per well, and incubated for 16-18 h. The test substances were titrated in DMSO and transferred to DMEM (PanEco, S420p) medium supplemented with 2% FBS, added to the cells and incubated at 37° C. for 72 hours; viability of the cells was then assessed using Alamar Blue dye (ThermoFisher, # DAL1100). CC50 was determined similarly to IC50.
(§2) The ratio between CC50 for HepG2 cell line and IC50 for H1975 cell line is the therapeutic index (TI): […]

HepG2 cells = assay: General cytotoxicity on HepG2 cells; type: cell-based; details: therapeutic index, CC50 HepG2 / IC50 H1975
Protocol: as §1, §2

[2] = tested on: H1975 (lung adenocarcinoma, DM, L828R/T790M); assay: Antiproliferative activity on H1975 cells (Alamar Blue); type: cell-based; details: for IC50: Homo sapiens, NCI-H1975, H1975 cells; for SI IC50(A549)/IC50(DM): selectivity index, A549 vs H1975 cells
Protocol: (§3) Antiproliferative activity of EGFR inhibitors (Tables 15 and 16) was measured in cell-based bioassay on continuous epithelial cell cultures: A549 (lung adenocarcinoma, ATCC® CRM-CCL-185™—WT), HCC827 (lung adenocarcinoma, ATCC® CRL-2868™—SM (SingleMutantEGFR, exon19delE746-A750)) and H1975 (lung adenocarcinoma, ATCC® CRL-5908™—DM (DoubleMutantEGFR, L828R/T790M)) using cell viability reagent Alamar Blue (ThermoFisher, # DAL1100). Cells were cultured in 10% FBS-supplemented (Gibco, #16140071) RPMI-1640 (PanEco, S330p) for at least 1 passage after thawing, washed with PBS and passaged in 96-well culture plates (3599, Corning) with RPMI-1640 growth medium supplemented with 2% FBS in an amount of 5*10^3 cells/well for A549, 10*10^3 cells/well for HCC827 and 15*10^3 cells/well for H1975 in 100 μL, and incubated at 37° C. in an incubator (Thermo Forma, USA) under 5% of CO2 for 16-18 h for cell attachment.
(§4) The test compounds were dissolved in DMSO in the selected range of concentrations and transferred to RPMI-1640 medium (PanEco, S330p) supplemented with 2% FBS. After adding 50 μl of the prepared dilutions to the cells, the incubation mixture contained the final concentrations of the test substances and no more than 1% DMSO. The plates were Incubated at 37° C. for 72 h. After incubation, 15 μl of Alamar Blue vital dye (ThermoFisher, # DAL1100) was added to each well. The plates were shaken on an orbital shaker (Biosan, Latvia) and further incubated for 3-5 h in a CO2 incubator (Thermo Forma, USA). Number of living cells was estimated using a plate spectrophotometer Infinite M200Pro, (Tecan, Switzerland) measuring fluorescent signal at the excitation wavelength (λEx) of 540 nm and emission wavelength (λEm) of 590 nm.
IC50 was calculated using Magellan 7.2 software (Tecan, Switzerland) approximating experimental points by four-parameter logistic model with the optimization by Levenberg-Marquardt. […]
(§5) The ratio between IC50 for cell lines containing wild-type EGFR (A549) and IC50 for cell lines containing target mutation L828R/T790M (H1975) is the selectivity index (SI): […]

[3] = Chemical stability in human blood plasma; type: in vitro ADME; details: pooled human blood plasma; 10 μm; 4 hours at 37° C.; substance amount remaining
Protocol: 2) Determination of chemical stability in human blood plasma.
Determination of stability in human blood plasma was performed using pooled human blood plasma taken from ten healthy donors. The initial candidate solution (10 mM in DMSO) was diluted with pooled blood plasma to a concentration of 10 μm (test solution). The test solution was incubated in a dry block thermostat for 4 hours at 37° C. HPLC with Agilent 1200 liquid chromatography system (Agilent, USA) was employed to determine peak areas of the compounds in test samples, said peak areas corresponding to the initial test time (prior to incubation) and the final test time (after incubation in a dry block thermostat for 4 hours at 37° C.), proteins were preliminarily precipitated with acetonitrile. We used gradient elution (1 mL/min flow rate). Substance amount in % in a sample after thermostatting was determined.
The stability of the compounds was estimated.

[4] = target: T1, DM EGFR (DoubleMutantEGFR, L828R/T790M) (Homo sapiens, UniProt P00533, L858R/T790M); assay: Inhibition of DM EGFR kinase activity (ADP-Glo); type: biochemical; details: for IC50: inhibition of kinase activity, EGFR DM (L828R/T790M); for SI, IC50(WT)/IC50(DM): selectivity index, kinase EGFR WT vs EGFR DM
T1 construct: purchased SignalChem
Protocol: (§6) To assess IC50 values of the compounds disclosed herein, a biochemical assay of inhibition of kinase activity in a non-cellular system and a functional cellular anti-proliferation assay were used.
(§7) To assess inhibition of WT EGFR (Wild-Type EGFR), DM EGFR (DoubleMutantEGFR, L828R/T790M) kinase activity, SignalChem kinase system and ADP-Glo™ Kinase Assay (V9102, Promega) detection kit were used.
(§8) The measurements were carried out in a 25 μL reaction volume using a 96-well plate. […] The solution of 0.5 mg/mL peptide substrate and 50 μM ATP in the same buffer were added; the solution was incubated for 180 minutes at 37° C. To detect the amount of ATP taken up during the kinase reaction, the ADP Glo Detection Kit (V9102, Promega) was used. The luminescence was measured with the Infinite M200Pro plate spectrophotometer (Tecan, Switzerland). IC50 values were calculated using Magellan 7.2 software (Tecan, Switzerland) approximating experimental points by four-parameter logistic model with the optimization by Levenberg-Marquardt (Table 14).

[5] = tested on: A549 (lung adenocarcinoma, WT); assay: Antiproliferative activity on A549 cells (Alamar Blue); type: cell-based; details: Homo sapiens, antiproliferative test
Protocol: as §3, §4
IC50 was calculated using Magellan 7.2 software (Tecan, Switzerland) approximating experimental points by four-parameter logistic model with the optimization by Levenberg-Marquardt.
as §5

WT EGFR (Wild-Type EGFR) = target: T2, WT EGFR (Wild-Type EGFR) (Homo sapiens, UniProt P00533); assay: Inhibition of WT EGFR kinase activity (ADP-Glo); type: biochemical
T2 construct: purchased SignalChem
Protocol: as §6, §7, §8

[6] = Enzyme stability in human liver S9 fractions; type: in vitro ADME; details: 0.5 mg/mL pooled human liver S9 fractions; 10 μM compound; 37° C.; pH 7.4; read-out: Stability in liver S9 fractions, Clint
Protocol: Determination of enzyme stability.
Measuring of candidate enzyme stability enabled estimation of the stability of the compounds towards the action of liver enzymes.
Enzyme degradation rate was measured by incubating the reaction mixture in a dry block thermostat at 37° C., said reaction mixture comprising 0.5 mg/mL of pooled human liver S9 fractions (XenoTech, USA, cat # H0610), 10 μM compound, 2 mM β-nicotinamide adenine dinucleotide (Carbosynth, UK, cat # NN10871) and 4 mM magnesium chloride in 0.1 M sodium-phosphate buffer, pH=7.4. The reaction was quenched with acetonitrile (100 μL of acetonitrile/100 μL of the reaction mixture). After quenching, the samples were centrifuged at 10000 rpm for 10 minutes. Supernatant fluid was tested by chromatographic technique using Agilent1200 (Agilent, USA). We used gradient elution (1 mL/min flow rate). A graph of the logarithm of substance's peak area as a function of time was made. The dependent factor of the line corresponded to the elimination rate constant K based on which the drug's half-life T½ and intrinsic clearance CLint were calculated:
Based on the data obtained, candidate enzyme stability in human liver S9 fractions was determined (see Table 11).

[7] = average values obtained in several tests, Table 16, read-out: H1975 (DM) IC50
[8] = antiproliferative test, Table 15, read-out: IC50 H1975 (DM)

IC50 [2, 7] [nM] | IC50 [2, 8] [nM] | Stability in blood plasma, % [3] [%] | IC50 [4] [nM] | SI, IC50(WT)/IC50(DM) [4] | IC50 [5] [µM] | IC50 (WT EGFR (Wild-Type EGFR)) [nM] | Intrinsic clearance in human liver S9 fractions at 10 µM [6] [µL/min/mg] | Compound | CC50 at 72 h [1] [µM] | TI, CC50/IC50 (HepG2 cells) | SI IC50(A549)/IC50(DM) [2]
1.18 | 1.18 | 87.3 | 2.65 | 19.58 | 7.19 | 52 | 9.2 | C=CC(=O)Nc1cc(Nc2nccc(C(=O)c3ccc(N4CCCC4)cc3OC)n2)c(OC)cc1N(C)CCN(C)C [EGFR_3365_123, N-(2-((2-(dimethylamino)ethyl)(methyl)amino)-4-methoxy-5-((4-(2-methoxy-4-(pyrrolidin-1-yl)benzoyl)pyrimidin-2-yl)amino)phenyl)acrylamide] | 40 | 33959 | 6105
104 | 104 | 96.3 | < 1 | >41.48 | 9.15 | 41.5 | 19.5 | C=CC(=O)Nc1cc(Nc2cc(C(=O)c3ccc(OCCOC)cc3)ccn2)c(OC)cc1N(C)CCN(C)C [EGFR_3365_93, N-(2-((2-(dimethylamino)ethyl)(methyl)amino)-4-methoxy-5-((4-(4-(2-methoxyethoxy)benzoyl)pyridin-2-yl)amino)phenyl) acrylamide] | 23.6 | 227 | 88
4.42 | 4.42 | 94.0 | 2.54 | 17.09 | 13.6 | 43.4 | 10.5 | C=CC(=O)Nc1cc(Nc2nccc(C(=O)c3ccc(N4CC[C@@H](O)C4)cc3)n2)c(OC)cc1N(C)CCN(C)C [EGFR_3365_113, (R)-N-(2-((2-(dimethylamino)ethyl)(methyl)amino)-5-((4-(4-(3-hydroxypyrrolidin-1-yl)benzoyl)pyrimidin-2-yl)amino)-4-methoxyphenyl)acrylamide] | 46.3 | 10481 | 3073
62.6 | 62.6 | 68.2 | 5.09 | 15.37 | 14.9 | 78.2 | 17 | C=CC(=O)Nc1cc(Nc2cc(C(=O)c3ccccc3OC)ccn2)c(OC)cc1N(C)CCN(C)C [EGFR_3365_88, N-(2-((2-(dimethylamino)ethyl)(methyl)amino)-4-methoxy-5-((4-(2-methoxybenzoyl)pyridin-2-yl)amino)phenyl)acrylamide] | 26.9 | 429 | 238
57.6 | 57.6 | 73.3 | 2.75 | 24.50 | 8.02 | 67.4 | 11.6 | C=CC(=O)Nc1cc(Nc2cc(C(=O)c3ccc(OC)cc3OC)ccn2)c(OC)cc1N(C)CCN(C)C [EGFR_3365_87, N-(5-((4-(2,4-dimethoxybenzoyl)pyridin-2-yl)amino)-2-((2-(dimethylamino)ethyl)(methyl)amino)-4-methoxyphenyl)acrylamide] | 19.5 | 338 | 139
4.35 | 4.35 | 100.0 | 1.71 | 14.85 | 21.4 | 25.4 | 12.8 | C=CC(=O)Nc1cc(Nc2nccc(C(=O)c3ccc(N4CCC[C@H](O)C4)cc3)n2)c(OC)cc1N(C)CCN(C)C [EGFR_3365_108, (S)-N-(2-((2-(dimethylamino)ethyl)(methyl)amino)-5-((4-(4-(3-hydroxypiperidin-1-yl)benzoyl)pyrimidin-2-yl)amino)-4-methoxyphenyl)acrylamide] | 47.9 | 11026 | 4925
258 | 258 | 77.2 | 6.42 | 17.61 | 3.78 | 113 | 21.8 | C=CC(=O)Nc1cc(Nc2nccc(C(=O)c3ccc(OC)cc3OC(C)C)n2)c(OC)cc1N(C)CCN(C)C [EGFR_3365_104] | 18.7 | 73 | 15
